# US9163027B2, “Substituted triazolo-pyrimidine compounds for modulating cell proliferation differentiation and survival” (STATegics, Inc., priority 2012, dated 2015)
# Legend:
# PC12 cells = test: PC12 cell survival under serum deprivation (CellTiter-Glo); type: cell-based, rat; conditions: 72 h serum-free; for minimal effective concentration: Rattus norvegicus, PC-12, read-out: PC12 cell proliferation (CellTiter-Glo ®) Concentration at which RLU increased >25% compared to medium control
# Method: Each culture condition was performed in quadruplicate in each experiment and the mean values were calculated. The results represent mean±SEM of relative light unit values when compared to the mean values obtained in the presence of the medium alone. A total of 13 experiments were performed and the statistical significance was analyzed using GraphPad Prism software using ANOVA, followed by paired t-test. The symbol * indicates P-values <0.01.
# PC12 cells were cultured in DMEM supplemented with 10% fetal calf serum and 5% horse serum. […] Cell viability was analyzed by CellTiter-Glo® reagent (Promega).
# PC12 cells were cultured in DMEM supplemented with 10% fetal calf serum and 5% horse serum. […] Cell survival of the serum-starved cells was analyzed by CellTiter-Glo® reagent luminescence reading.
# FIG. 2 illustrates neuroprotective effects of Compounds 1-5 when tested in PC12 cell protection assays. PC12 cells were subjected to serum deprivation as described under FIG. 1.
# PC12 cells were cultured in DMEM supplemented with 10% fetal calf serum and 5% horse serum. […] Cell survival of the serum-starved cells was analyzed by CellTiter-Glo® reagent luminescence reading (relative light units, “RLU”). […] “NS” indicates RLU increased <25% when compounds were tested at 5 uM.
# [1] = tested on: human CD34+ hematopoietic stem cells; test: Proliferation and differentiation of primary human CD34+ cells; type: cell-based
# Method: Compound 10 was tested at different concentrations for its ability to induce proliferation and differentiation of human CD34+ hematopoietic stem cells. Human CD34+ cells were purified by (FIG. 6A) immunomagnetic beads (>90% purity, purchased from Stem Cell Technologies) or (FIG. 6B) cell sorting (at Blood Systems Research Institute) and the cells were cultured in the presence of compounds for eight (FIG. 6A) or eleven (FIG. 6B) days. (FIG. 6A) The level of cell growth and survival was measured based on ATP levels (CellTiterGlo reagent), or (FIG. 6B) the expression level of CD235a was analyzed by flow cytometry as a marker for cell maturation. Cell survival was analyzed using the CellTiterGlo reagent to measure ATP levels as a marker of metabolically active cells that have not undergone apoptosis, and expression of CD235a as a marker of erythroid cell differentiation and as a specific marker for EPO-like erythropoietic activity.
# [2] = tested on: rat ventral mesencephalic dopaminergic neurons; test: Protection of primary dopaminergic neurons from 6-OHDA (THir neuron staining); type: cell-based; conditions: 6.25 uM 6-OHDA 40 min, FIG. 7
# Method: Dissociated embryonic D14 rat ventral mesencephalic cells were used.
# Dopaminergic neurons play a key role in the pathogenesis of Parkinson's disease and compounds enhancing survival of these cells have significant therapeutic potential. Dissociated embryonic D14 rat ventral mesencephalic cells were used to test the potential of EPO mimetic compounds to protect primary dopaminergic neurons. […] The cells were plated in 48-well poly-D-lysine coated plates using a microisland technique. The microislands were seeded into dry plates in 10 uL aliquots of 3000 cells/uL and incubated at 37° C. for 1 h to allow for adhesion. […] On day 3, the medium was replaced with 6.25 uM 6-hydroxydopamine (6-OHDA, Sigma) for a 40 minute incubation. The toxin was then removed and the cells were cultured for an additional 2 days. On day 5, the cells were fixed, permeabilized and stained for tyrosine hydroxylase-immunoreactive (THir) neurons.
# EPO receptor [3] = biological target: T1, EPO receptor (Homo sapiens, UniProt P19235); test: EPO receptor phosphorylation in primary human fetal neural cells (phospho-EPOR ELISA); type: cell-based; conditions: FIG. 5A; for EPO receptor phosphorylation: 10 min incubation; for level of receptor activation compared with recombinant human EPO: recombinant human EPO 10 IU/ml
# T1 construct: endogenous in cells; host or cells: primary human fetal neural cells cultured from micro-dissected fetal brain tissue (Advanced Bioscience Resources, Inc.)
# T1 sequence (P19235 25-508): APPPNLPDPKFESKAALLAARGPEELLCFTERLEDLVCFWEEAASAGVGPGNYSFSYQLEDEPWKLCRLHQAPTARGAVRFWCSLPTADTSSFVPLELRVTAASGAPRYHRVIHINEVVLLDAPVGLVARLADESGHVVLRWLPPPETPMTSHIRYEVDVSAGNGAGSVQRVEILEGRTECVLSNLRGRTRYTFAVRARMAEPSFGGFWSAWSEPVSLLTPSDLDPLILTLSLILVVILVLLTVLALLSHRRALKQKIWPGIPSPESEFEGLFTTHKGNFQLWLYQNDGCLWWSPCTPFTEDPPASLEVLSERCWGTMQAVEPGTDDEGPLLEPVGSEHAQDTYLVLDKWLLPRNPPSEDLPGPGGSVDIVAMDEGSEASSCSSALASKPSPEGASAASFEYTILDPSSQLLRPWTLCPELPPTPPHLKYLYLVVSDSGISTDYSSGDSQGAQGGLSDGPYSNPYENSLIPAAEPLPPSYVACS
# Method: (§1) Primary micro-dissected fetal brain tissue was obtained from a commercial source (Advanced Bioscience Resources, Inc., Alameda, Calif.). Cultured primary human fetal neural cells (3 h, 1 day, 17 days, or 26 days in culture) were incubated with Compound 5, Compound 6, or controls for 10 min (FIG. 5A). Phospho-EPOR was detected by ELISA (R&D Systems). […] Human erythropoietic cell line TF-1 was cultured for 10 min in the presence of Compound 5, Compound 6, or the controls, and phospho-EPOR was detected by ELISA (R&D Systems). The data represent mean±SEM of triplicate cultures. […] The receptor activation results were consistent with functional cell based assays using primary human CD34+ bone marrow progenitor cells and erythroleukemia cell line TF-1.
# frataxin [4] = test: Frataxin protein levels in primary human fetal neurons (ELISA); type: cell-based; conditions: 28 days in culture, 24 h incubation, FIG. 4B
# Method: The effects of the compounds on frataxin protein levels in cells were analyzed. […] Embryonic mouse cell line P19 was differentiated into neuronal cells in the presence of retinoic acid and frataxin levels were measured (FIG. 4A). Frataxin levels were measured after 24 h by multi-species frataxin-ELISA (MitoSciences) and compared to total protein levels. The data represent mean±SEM. Primary human fetal neurons (28 days in culture) were also incubated for 24 h in the presence of the compounds, and human frataxin levels were measured by ELISA (MitoSciences) and compared to total protein levels (FIG. 4B). The data represent mean±SEM of triplicate measurements. Compounds were also tested for their effects on frataxin levels in cells derived from patients with FRDA. Cultures of patient peripheral blood mononuclear cells (PBMCs) were also used to test the EPO mimetic compounds for frataxin enhancement in frataxin-deficient cells. Compound 1 and Compounds 5-6 enhanced frataxin levels in these patient cells at concentration 1 uM or lower.
# primary human neurons = test: Neuroprotection of primary human neurons against staurosporine; type: cell-based; conditions: 47 days in culture, compound 24 h, then staurosporine 500 nM 24 h, FIG. 3B
# Method: A) Primary rat cortical neurons were isolated from micro-surgically dissected regions of day 18 embryonic rat brain (Brain Bits, LLC, Springfield, Ill.) and cultured for 12 days in vitro. Then, Compounds 5-7 were added for 24 h. Next, NMDA (50 uM) was added and the cells were cultured for an additional 24 hours. Cells cultured without the insult were considered to represent 0% neuron death. The data represent mean±SEM of six replicate cultures and * indicates P value ≦0.05. B) Primary micro-dissected fetal brain tissue was obtained from a commercial source (Advanced Bioscience Resources, Inc., Alameda, Calif.). […] Staurosporine (500 nM) was added and the cells were cultured for an additional 24 hours. Cells cultured without the insult were considered to represent 0% neuron death. The data represent mean±SEM of six replicate cultures and * indicates P value ≦0.05.
# EPO receptor [5] = test: EPO receptor phosphorylation in erythroleukemia cell line TF-1 (phospho-EPOR ELISA); type: cell-based, human; conditions: TF-1, 10 min, FIG. 5B
# Method: as §1
# TF-1 cells = test: Proliferation of TF-1 cells; type: cell-based, human; conditions: at concentrations that provided significant neuroprotective effects
# rats [6] = test: Kidney and CNS protection against DMA + Cremophor EL toxicity in rats; type: in vivo, rat; conditions: DMA + CrEL 2.5 mL/kg each IP
# Method: High-dose N,N-dimethylacetamide (DMA)+Cremophor EL (CrEL) (2.5 mL/kg each, IP) was used to induce acute CNS and organ toxicity, and the potential of Compound 5 to protect the rats was studied.
# frataxin [7] = conditions: patients with chronic kidney disease, rhEPO infusion for anemia (Sturm et al. 2005); cited from earlier work
# rats [8] = conditions: rat model of MCA occlusion (Brines et al. 2000); cited from earlier work
# [9] = human, intravenous administration (Xenocostas et al. 2005); cited from earlier work
# frataxin [10] = conditions: 8 FRDA patients, open label pilot trial (Boesch et al. 2008); cited from earlier work
# [11] = NS = RLU increased <25% at 5 uM
Compound,minimal effective concentration (PC12 cells; [11]),EPO receptor phosphorylation (EPO receptor [3]),level of receptor activation compared with recombinant human EPO (EPO receptor [3]),frataxin protein levels (frataxin [4]),neuroprotective effect (neuron death) (primary human neurons),EPO receptor activation (phospho-EPOR) (EPO receptor [5]),proliferation of TF-1 cells (TF-1 cells),further results
"COc1ccc(NC(=O)CSc2nc3nc(C)cc(C)n3n2)cc1 [Example 10, 2-({5,7-dimethyl-[1,2,4]triazolo[1,5-a]pyrimidin-2-yl}sulfanyl)-N-(4-methoxyphenyl)acetamide]",,,,,,,,"PC12 cell proliferation (CellTiter-Glo ®) Concentration at which RLU increased >25% compared to medium control (PC12 cells; [11]): NS (RLU increased <25% when compounds were tested at 5 uM); CD34+ progenitor cell proliferation (ATP levels, CellTiterGlo) ([1]; eight days culture, FIG. 6A): dose-dependent induction of CD34+ progenitor cell proliferation; differentiation into erythroid cells (CD235a expression, flow cytometry) ([1]; eleven days culture, FIG. 6B): differentiation into erythroid cells expressing CD235a"
"Cc1cc(C)n2nc(SCCOc3ccc(Cl)cc3)nc2n1 [Example 1, 2-{[2-(4-chlorophenoxy)ethyl]sulfanyl}-5,7-dimethyl-[1,2,4]triazolo[1,5-a]pyrimidine]",< 5 µM,,,,,,,"protection of PC12 cells (cell viability) (PC12 cells; 1 uM, FIG. 1, at least comparable to rhEPO): significant effect; level of protection of PC12 cells compared with rhEPO (PC12 cells; 5 uM vs rhEPO 10 U/ml, FIG. 1): higher level of protection than rhEPO; protection of dopaminergic neurons from 6-OHDA toxicity ([2]; 1 uM): significantly protected"
"Cc1cc(C)n2nc(OCCOc3ccc(Cl)cc3)nc2n1 [Example 11, 2-[2-(4-chlorophenoxy)ethoxy]-5,7-dimethyl-[1,2,4]triazolo[1,5-a]pyrimidine]",< 5 µM,increased EPO receptor phosphorylation in a dose-dependent manner,comparable to that induced by recombinant human EPO,increased frataxin protein levels,Significant protective effects,did not activate EPO receptor,did not induce proliferation,CNS toxicity of DMA/CrEL (rats [6]): prevented the CNS toxicity; response of the rats to formalin injection (rats [6]): normalized the response; kidney-protective effects measured by hypoproteinemia in serum (rats [6]; FIG. 8): Kidney-protective effects
"rhEPO: recombinant human (rh)EPO, erythropoietin; positive control",,,,,,effective,,increase in frataxin levels in peripheral blood mononuclear cells (frataxin [7]): 2-3 fold; reduction of infarct volume (rats [8]): 50-75%; concentration in cerebrospinal fluid lower than in circulation [9]: more than 1000 fold; increase in frataxin in lymphocytes (frataxin [10]): 24%; protection of dopaminergic neurons from 6-OHDA toxicity ([2]; 10 IU/ml): significantly protected
"Cc1cc(C)n2nc(OCCN(CCO)c3ccccc3)nc2n1 [Example 13, 2-{[2-({5,7-Dimethyl-[1,2,4]triazolo[1,5-a]pyrimidin-2-yl}oxy)ethyl](phenyl)amino}ethan-1-ol]",< 5 µM,increased EPO receptor phosphorylation in a dose-dependent manner,comparable to that induced by recombinant human EPO,increased frataxin protein levels,Significant protective effects,did not activate EPO receptor,did not induce proliferation,
